Source: patent publication US20240398837A1, “Combination Therapy For Prostate Cancer” (Janssen Pharmaceutica NV, priority 2017, published 2024)
Read-outs that look alike come from different tables or passages of the source.

How the values were obtained:
[1] = tested on: human VCaP prostate tumors; conditions: for TGI (%): day 58, vs. vehicle control; for TGI (%) / Tumor on day: p.o. Qd x 35; for ILS (%): increased life span, compared with group 1 (vehicle); for MLS: median lifespan, euthanized when tumor volume reached 1500 mm^3; for Tumor on day: tumor volume, Mean ± SEM, day 58, N=10/group
PARP-2 = PARP-2 (Homo sapiens, UniProt Q9UGN5); conditions: in words; cited from earlier work
PARP-2, sequence (Q9UGN5 whole entry, species assumed): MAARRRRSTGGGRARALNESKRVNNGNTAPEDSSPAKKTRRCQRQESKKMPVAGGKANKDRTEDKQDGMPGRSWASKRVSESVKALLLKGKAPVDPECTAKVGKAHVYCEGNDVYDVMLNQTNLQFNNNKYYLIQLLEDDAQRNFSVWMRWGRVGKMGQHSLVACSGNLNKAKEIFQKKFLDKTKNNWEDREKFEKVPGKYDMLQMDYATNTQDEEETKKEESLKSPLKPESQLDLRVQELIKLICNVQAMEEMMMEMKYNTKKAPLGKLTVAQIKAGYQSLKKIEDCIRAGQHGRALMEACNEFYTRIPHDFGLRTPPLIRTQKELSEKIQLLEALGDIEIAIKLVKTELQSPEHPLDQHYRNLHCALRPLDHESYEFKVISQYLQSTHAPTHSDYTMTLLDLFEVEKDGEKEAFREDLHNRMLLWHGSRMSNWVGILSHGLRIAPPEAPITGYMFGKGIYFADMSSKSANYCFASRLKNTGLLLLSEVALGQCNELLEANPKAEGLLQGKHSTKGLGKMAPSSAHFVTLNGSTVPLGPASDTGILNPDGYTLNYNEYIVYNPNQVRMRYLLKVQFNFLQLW

CYP1A2 = conditions: preclinical data; cited from earlier work
[2] = tested on: cancer cell lines that have been silenced for BRCA-1 or BRCA-2 genes, or that have BRCA-1 and BRCA-2 mutations; conditions: due to cell cycle arrest, followed by apoptosis; cited from earlier work
[3] = anesthetized dogs; cited from earlier work
[4] = cited from earlier work
PARP-1 = PARP-1 (Homo sapiens, UniProt P09874); conditions: in words; cited from earlier work
PARP-1, sequence (P09874 whole entry, species assumed): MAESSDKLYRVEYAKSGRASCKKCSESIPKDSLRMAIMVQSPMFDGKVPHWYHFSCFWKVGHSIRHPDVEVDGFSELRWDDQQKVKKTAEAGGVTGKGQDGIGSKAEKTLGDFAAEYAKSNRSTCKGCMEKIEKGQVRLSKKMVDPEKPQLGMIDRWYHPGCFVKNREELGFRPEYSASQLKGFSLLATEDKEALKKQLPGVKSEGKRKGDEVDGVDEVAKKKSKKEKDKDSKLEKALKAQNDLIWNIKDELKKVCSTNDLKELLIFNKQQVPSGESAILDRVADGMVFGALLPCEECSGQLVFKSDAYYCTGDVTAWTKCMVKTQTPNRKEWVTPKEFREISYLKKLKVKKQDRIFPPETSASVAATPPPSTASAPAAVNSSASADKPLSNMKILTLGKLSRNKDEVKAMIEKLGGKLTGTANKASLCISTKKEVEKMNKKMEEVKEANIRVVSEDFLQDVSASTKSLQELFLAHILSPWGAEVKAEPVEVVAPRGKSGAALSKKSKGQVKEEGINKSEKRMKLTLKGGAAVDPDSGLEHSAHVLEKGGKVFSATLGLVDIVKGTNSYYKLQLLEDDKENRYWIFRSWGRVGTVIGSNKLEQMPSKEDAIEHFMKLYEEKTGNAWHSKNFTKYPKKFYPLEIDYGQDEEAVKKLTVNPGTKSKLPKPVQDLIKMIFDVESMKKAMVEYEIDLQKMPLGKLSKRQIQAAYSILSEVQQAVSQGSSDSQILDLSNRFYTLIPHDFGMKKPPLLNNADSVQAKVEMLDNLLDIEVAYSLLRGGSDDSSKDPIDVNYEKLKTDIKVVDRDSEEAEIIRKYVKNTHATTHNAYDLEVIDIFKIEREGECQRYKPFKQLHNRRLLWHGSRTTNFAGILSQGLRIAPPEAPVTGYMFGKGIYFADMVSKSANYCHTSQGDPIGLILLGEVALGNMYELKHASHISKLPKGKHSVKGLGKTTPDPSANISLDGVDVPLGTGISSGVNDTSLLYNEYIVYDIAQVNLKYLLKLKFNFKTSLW

P-glycoprotein = P-glycoprotein (Homo sapiens, UniProt P08183); conditions: cited from earlier work
P-glycoprotein, sequence (P08183 whole entry): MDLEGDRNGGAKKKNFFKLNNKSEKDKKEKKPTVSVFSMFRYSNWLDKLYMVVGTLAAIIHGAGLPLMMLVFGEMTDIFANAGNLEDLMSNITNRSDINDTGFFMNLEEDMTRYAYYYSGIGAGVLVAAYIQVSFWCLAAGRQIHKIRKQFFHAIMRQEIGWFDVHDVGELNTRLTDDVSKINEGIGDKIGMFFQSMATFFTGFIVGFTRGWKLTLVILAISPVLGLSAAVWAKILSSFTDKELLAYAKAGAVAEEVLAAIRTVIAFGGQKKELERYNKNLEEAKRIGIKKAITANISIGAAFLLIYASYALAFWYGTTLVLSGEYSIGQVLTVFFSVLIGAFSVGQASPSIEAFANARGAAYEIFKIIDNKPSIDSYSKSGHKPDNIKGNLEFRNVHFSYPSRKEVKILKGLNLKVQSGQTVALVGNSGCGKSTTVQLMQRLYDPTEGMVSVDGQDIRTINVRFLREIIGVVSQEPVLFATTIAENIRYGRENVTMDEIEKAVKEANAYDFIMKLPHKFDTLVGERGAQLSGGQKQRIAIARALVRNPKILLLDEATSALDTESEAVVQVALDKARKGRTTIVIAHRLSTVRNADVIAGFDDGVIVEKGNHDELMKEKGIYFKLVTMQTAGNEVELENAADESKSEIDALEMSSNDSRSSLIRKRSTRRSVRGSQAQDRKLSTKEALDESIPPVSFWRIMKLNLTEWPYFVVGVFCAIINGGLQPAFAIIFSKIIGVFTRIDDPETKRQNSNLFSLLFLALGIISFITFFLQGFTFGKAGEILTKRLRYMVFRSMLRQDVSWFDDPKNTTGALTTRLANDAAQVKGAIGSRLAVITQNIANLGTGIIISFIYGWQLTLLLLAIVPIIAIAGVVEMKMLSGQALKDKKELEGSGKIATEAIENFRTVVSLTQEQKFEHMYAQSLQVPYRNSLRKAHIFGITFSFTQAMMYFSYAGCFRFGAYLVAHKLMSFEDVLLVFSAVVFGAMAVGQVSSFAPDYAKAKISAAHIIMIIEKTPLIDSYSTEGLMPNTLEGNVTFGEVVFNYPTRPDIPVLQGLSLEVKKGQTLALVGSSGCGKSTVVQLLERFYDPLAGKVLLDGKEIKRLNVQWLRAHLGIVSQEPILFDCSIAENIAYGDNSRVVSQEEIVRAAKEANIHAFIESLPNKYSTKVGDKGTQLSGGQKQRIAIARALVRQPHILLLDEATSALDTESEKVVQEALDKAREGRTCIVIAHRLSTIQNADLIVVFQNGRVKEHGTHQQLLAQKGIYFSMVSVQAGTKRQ

[5] = tested on: cytochrome P450 (CYP) enzymes; conditions: in words; cited from earlier work
[6] = tested on: BRCA-1-deficient breast, BRCA-2-deficient pancreatic and ovarian cancers; conditions: mice; cited from earlier work
neurological function = conditions: conscious mice; cited from earlier work
androgens = conditions: cited from earlier work
mCRPC = conditions: cited from earlier work
[7] = added to castration, relative to castration alone

SMILES: C[C@]12CC[C@H](O)CC1=CC[C@@H]1[C@@H]2CC[C@]2(C)C(c3cccnc3)=CC[C@@H]12 [Abiraterone]
- TGI (%) [1]: 37.6%
- inhibition of tumor growth ([1]; days 37-55, compared with vehicle control): 35%-46%
- ILS (%) [1]: 13.1%
- MLS [1]: 88 days
- Tumor on day [1]: 523 ± 51 mm^3
- increase of MLS ([1]; vs the vehicle control group): 10.5 days

SMILES: NC(=O)c1cccc2cn(-c3ccc([C@@H]4CCCNC4)cc3)nc12 [Niraparib, 2-[4-[(3S)-piperidin-3-yl]phenyl]indazole-7-carboxamide]
- activity against PARP-2 (PARP-2): potent activity
- potential to induce CYP1A2 enzymes (CYP1A2): moderate potential
- anti-proliferative activity [2]: demonstrates anti-proliferative activity
- QRS cardiac interval [3]: increased
- QTc interval [3]: unaffected
- heart rate [3]: increased
- mean arterial pressure [3]: increased
- metabolism ([4]; in vitro, multiple metabolic enzymes (both CYPs and non-CYPs)): limited metabolism
- clearance ([4]; in words): low clearance drug
- activity against PARP-1 (PARP-1): potent activity
- P-glycoprotein substrate (P-glycoprotein): is a P-glycoprotein substrate
- inhibition or induction of CYP enzymes [5]: not a potent inhibitor or inducer
- antitumor activity [6]: has antitumor activity
- effect on neurological function (neurological function): no effect
- TGI (%) [1]: 20.8%
- inhibition of tumor growth ([1]; days 41-55, compared with vehicle control): approximately 25%
- MLS / survival benefit ([1]; in words, compared with the vehicle control group): did not increase MLS or provide a significant survival benefit
- ILS (%) [1]: −0.6%
- MLS [1]: 79 days
- Tumor on day [1]: 664 ± 50 mm^3

SMILES: CC(=O)O[C@H]1CC[C@@]2(C)C(=CC[C@@H]3[C@@H]2CC[C@]2(C)C(c4cccnc4)=CC[C@@H]32)C1 [abiraterone acetate, 3β-acetoxy-17-(3-pyridyl)androsta-5,16-diene]
- reduction of levels of DHEA (androgens; [7]): 97-98%
- reduction of levels of DHT (androgens; [7]): 85%
- reduction of levels of androstenedione (androgens; [7]): 77-78%
- circulating testosterone levels (androgens; after administration of abiraterone acetate, castration gives 20 ng/dL): less than 1 ng/dL

SMILES: O=C(c1cc(Cc2n[nH]c(=O)c3ccccc23)ccc1F)N1CCN(C(=O)C2CC2)CC1 [olaparib]
- responders that were biomarker-positive for anomalies in DNA-repair genes (mCRPC; 14 of the 16 responding patients): 88%
- patients with a response (mCRPC; all patients, sixteen of 49, 95% CI 20%, 48%): 33%
- Overall survival (OS), median (mCRPC; biomarker-negative group): 7.5 months
- Radiographic progression-free survival (rPFS), median (mCRPC; biomarker-negative group): 2.7 months
- patients with a response (mCRPC; biomarker-negative, 2 of 33): 6%
- Overall survival (OS), median (mCRPC; biomarker-positive group): 13.8 months
- Radiographic progression-free survival (rPFS), median (mCRPC; biomarker-positive group): 9.8 months
- patients with a response (mCRPC; patients with ATM aberrations): 4 of 5
- patients with a response (mCRPC; patients with BRCA-2 loss): all 7
